Experimental data: US7585851B2, “3′-prodrugs of 2′-deoxy-β-L-nucleosides” (priority 2000, dated 2009)

Experiments:
[1] = tested on: human hepatoma cell line 2.2.15; assay: Cytotoxicity in 2.2.15 cells; conditions: 2.2.15 cells; 50% inhibition of neutral red dye uptake (Table 25)
[2] = tested on: human erythroid burst-forming (BFU-E) progenitor cells; format: cell-based; conditions: human bone marrow clonogenic assay
Source text: (§1) In particular, anemia and neutropenia are the most common drug-related clinical toxicities associated with the anti-HIV drug zidovudine (ZDV).

[3] = tested on: human granulocyte-macrophage colony-forming (CFU-GM) progenitor cells; format: cell-based; conditions: human bone marrow clonogenic assay
Source text: as §1

[4] = Cytotoxicity in 2.2.15 cells; conditions: human, 2.2.15 hepatoma cells
HBV = assay: Anti-HBV activity in HBV-expressing 2.2.15 cells (HBV DNA reduction)

Cc1cn([C@@H]2C[C@@H](O)[C@H](CO)O2)c(=O)[nH]c1=O [L-dT, β-L-2′-deoxythymidine]
CC50 [1]: 3020 µM

Nc1ccn([C@@H]2CS[C@H](CO)O2)c(=O)n1 [lamivudine, (−)-enantiomer of cis-2-hydroxymethyl-5-(cytosin-1-yl)-1,3-oxathiolane, reference compound]
IC50 [2]: > 10 µM | IC50 [3]: > 10 µM | CC50 [4]: > 1000 µM | S.I. (CC50/EC90) (HBV; 2.2.15 cells): >5,000 | EC90 (HBV; Hepatitis B virus): 0.18 ± 0.007 µM
